The source of these data is patent US9458153B2, “Dihydroquinolizinones for the treatment and prophylaxis of hepatitis B virus infection” (Hoffmann-La Roche Inc., priority 2014, dated 2016).

This test deals with HBsAg. Put plainly: HBsAg assay (chemiluminescence immunoassay of secreted HBsAg in HepG2.2.15 culture supernatant). The class given is cell-based, HBV. The settings on record: HBsAg secretion reduced by 50% vs no drug control, HepG2.2.15 cells, CLIA kit. As for the experimental part: HepG2.2.15 cells (Acs et al. Proc Natl Acad Sci USA, 84, (1987), 4641-4), a constitutively HBV-expressing cell line were cultured in DMEM+Glutamax-I medium (Invitrogen, Carlsbad, Calif., USA), supplemented with 10% fetal bovine serum (Invitrogen) and G418 (Invitrogen) at a final concentration of 200 mg/L and maintained in 5% CO2 at 37° C.
HepG2.2.15 cells were seeded in duplicate into white, 96-well plates at 1.5×10^4 cells/well. The cells were treated with a three-fold serial dilution series of the compounds in DMSO. The final DMSO concentration in all wells was 1% and DMSO was used as no drug control.
The HBsAg chemiluminescence immunoassay (CLIA) kit (Autobio Diagnostics Co., Zhengzhou, China, Catalog number: CL0310-2) was used to measure the levels of secreted HBV antigens semi-quantitatively. For the detection 50 μL/well culture supernatant was used and HBsAg was quantified using HBsAg chemiluminescence immunoassay (CLIA) kit (Autobio Diagnostics Co., Zhengzhou, China, Catalog number: CL0310-2), 50 μL of the supernatant was transferred to the CLIA assay plate and 50 μL of enzyme conjugate reagent was added into each well. The plates were sealed and gently agitated for 1 hour at room temperature. The supernatant-enzyme-mixture was discarded and wells were washed 6 times with 300 μL of PBS. The residual liquid was removed by plating the CLIA plate right side down on absorbent tissue paper. 25 μL of substrates A and B were added to each well. Luminance was measured using a luminometer (Mithras LB 940 Multimode Microplate Reader) after 10 minutes incubation. Dose-response curves were generated and the IC50 value was extrapolated by using the E-WorkBook Suite (ID Business Solutions Ltd., Guildford, UK).
The compounds of the present invention were tested for their capacity to inhibit HBsAg as described herein.

SMILES strings stand for the structures. Counter-ions that a name gives are not always drawn.

Usually IC50 stands for the point on the concentration scale where inhibition reaches its midpoint. The low end stands for greater potency in that assay, the high end for weaker potency in that assay. On to `COc1cc2c(cc1OCCCCCO)CC(C(C)(C)C)n1cc(C(=O)O)c(=O)cc1-2` (single isomer, unassigned; (+)) [Example 153, (+)-6-tert-butyl-9-(5-hydroxypentoxy)-10-methoxy-2-oxo-6,7-dihydrobenzo[a]quinolizine-3-carboxylic acid], for which the IC50 was found to be 1 nM. The same measure, in the same setting: the value for `COc1cc2c(cc1OCCCCCCO)CC(C(C)(C)C)n1cc(C(=O)O)c(=O)cc1-2` (single isomer, unassigned; (+)) [Example 156, (+)-6-tert-butyl-9-(6-hydroxyhexoxy)-10-methoxy-2-oxo-6,7-dihydrobenzo[a]quinolizine-3-carboxylic acid] was 1 nM; that for `COc1cc2c(cc1OCCCCCCNC(=O)OC(C)(C)C)CC(C(C)(C)C)n1cc(C(=O)O)c(=O)cc1-2` (single isomer, unassigned; (+)) [Example 162, (+)-9-[6-(tert-butoxycarbonylamino)hexoxy]-6-tert-butyl-10-methoxy-2-oxo-6,7-dihydrobenzo[a]quinolizine-3-carboxylic acid] was 2 nM. As for `COc1cc2c(cc1OCCCCCCN)CC(C(C)(C)C)n1cc(C(=O)O)c(=O)cc1-2` (single isomer, unassigned; (+)) [Example 164, (+)-9-(6-aminohexoxy)-6-tert-butyl-10-methoxy-2-oxo-6,7-dihydrobenzo[a]quinolizine-3-carboxylic acid hydrochloride], 3 nM corresponded to half-maximal inhibition (hydrochloride) (IC50).

As for `COc1cc2c(cc1OCCCCCCCCNC(=O)OC(C)(C)C)CC(C(C)(C)C)n1cc(C(=O)O)c(=O)cc1-2` (single isomer, unassigned; (+)) [Example 168, (+)-9-[8-(tert-butoxycarbonylamino)octoxy]-6-tert-butyl-10-methoxy-2-oxo-6,7-dihydrobenzo[a]quinolizine-3-carboxylic acid], the IC50 stood at 6 nM. In the case of `COc1cc2c(cc1OCCCCCCCCN)CC(C(C)(C)C)n1cc(C(=O)O)c(=O)cc1-2` (single isomer, unassigned; (+)) [Example 170, (+)-9-(8-aminooctoxy)-6-tert-butyl-10-methoxy-2-oxo-6,7-dihydrobenzo[a]quinolizine-3-carboxylic acid hydrochloride], the 50% inhibitory concentration (IC50) (hydrochloride) stood at 8 nM.

As to `COc1cc2c(cc1OCCCCCN)CC(C(C)(C)C)n1cc(C(=O)O)c(=O)cc1-2` (single isomer, unassigned; (+)) [Example 173, (+)-9-(5-aminopentoxy)-6-tert-butyl-10-methoxy-2-oxo-6,7-dihydrobenzo[a]quinolizine-3-carboxylic acid hydrochloride], the 50% inhibitory concentration (IC50) (hydrochloride) is 21 nM. This IC50 lies about 2.6-fold higher than the previous one. As to `COc1cc2c(cc1OCCCSC)CC(C(C)(C)C)n1cc(C(=O)O)c(=O)cc1-2` (single isomer, unassigned; (+)) [Example 184, (+)-6-tert-butyl-10-methoxy-9-(3-methylsulfanylpropoxy)-2-oxo-6,7-dihydrobenzo[a]quinolizine-3-carboxylic acid], half-maximal inhibition (IC50) required 1 nM. For `COc1cc2c(cc1OCCCS(C)(=O)=O)CC(C(C)(C)C)n1cc(C(=O)O)c(=O)cc1-2` (single isomer, unassigned; (+)) [Example 187, (+)-6-tert-butyl-10-methoxy-9-(3-methylsulfonylpropoxy)-2-oxo-6,7-dihydrobenzo[a]quinolizine-3-carboxylic acid], the IC50 was found to be 13 nM. With `COc1cc2c(cc1OCCCN1CCOCC1)CC(C(C)(C)C)n1cc(C(=O)O)c(=O)cc1-2` (single isomer, unassigned; (+)) [Example 193, (+)-6-tert-butyl-10-methoxy-9-(3-morpholinopropoxy)-2-oxo-6,7-dihydrobenzo[a]quinolizine-3-carboxylic acid], the IC50 was determined as 3 nM.

For `COCCCOc1cc2c(cc1OC)-c1cc(=O)c(C(=O)O)cn1C(CC(F)(F)F)C2` (single isomer, unassigned; (+)) [Example 200, (+)-10-methoxy-9-(3-methoxypropoxy)-2-oxo-6-(2,2,2-trifluoroethyl)-6,7-dihydrobenzo[a]quinolizine-3-carboxylic acid], inhibition was half-maximal at 24 nM (IC50). The same measure, in the same setting: the value for `COCCCOc1cc2c(cc1Cl)-c1cc(=O)c(C(=O)O)cn1C(C(C)(C)C)C2` (single isomer, unassigned; (+)) [Example 203, (+)-6-tert-butyl-10-chloro-9-(3-methoxypropoxy)-2-oxo-6,7-dihydrobenzo[a]quinolizine-3-carboxylic acid] was 0.3 nM; that for `COCCCOc1cc2c(c(F)c1F)-c1cc(=O)c(C(=O)O)cn1C(C(C)C)C2` (single isomer, unassigned; (+)) [Example 214, (+)-10,11-difluoro-6-isopropyl-9-(3-methoxypropoxy)-2-oxo-6,7-dihydrobenzo[a]quinolizine-3-carboxylic acid] was 15 nM; that for `CCOc1cc2c(cc1OCC)-c1cc(=O)c(C(=O)O)cn1C(CC)C2` (single isomer, unassigned; (-)) [Example 7, (−)-9,10-diethoxy-6-ethyl-2-oxo-6,7-dihydrobenzo[a]quinolizine-3-carboxylic acid] was 1900 nM.

Take `CCC1Cc2cc(OCc3ccccc3)c(OC)cc2-c2cc(=O)c(C(=O)O)cn21` (single isomer, unassigned; (-)) [Example 10, (−)-9-benzyloxy-6-ethyl-10-methoxy-2-oxo-6,7-dihydrobenzo[a]quinolizine-3-carboxylic acid]: the IC50 came to 1240 nM. For `CCC1Cc2cc(OCC(F)(F)F)c(OC)cc2-c2cc(=O)c(C(=O)O)cn21` (single isomer, unassigned; (-)) [Example 12, (−)-6-ethyl-10-methoxy-2-oxo-9-(2,2,2-trifluoroethoxy)-6,7-dihydrobenzo[a]quinolizine-3-carboxylic acid], the IC50 is 5200 nM.

`CCC1Cc2cc(OCC(C)(C)CO)c(OC)cc2-c2cc(=O)c(C(=O)O)cn21` (single isomer, unassigned; (-)) [Example 24, (−)-6-ethyl-9-(3-hydroxy-2,2-dimethyl-propoxy)-10-methoxy-2-oxo-6,7-dihydrobenzo[a]quinolizine-3-carboxylic acid] had an IC50 of 1350 nM. As for `CCC1Cc2cc(OCCOC)c(OC)cc2-c2cc(=O)c(C(=O)O)cn21` (single isomer, unassigned; (-)) [Example 29, (−)-6-ethyl-10-methoxy-9-(2-methoxyethoxy)-2-oxo-6,7-dihydrobenzo[a]quinolizine-3-carboxylic acid], the IC50 came out at 1950 nM.

The compound `CCC1Cc2cc(OCC3CC3)c(OC)cc2-c2cc(=O)c(C(=O)O)cn21` (single isomer, unassigned; (-)) [Example 32, (−)-9-(cyclopropylmethoxy)-6-ethyl-10-methoxy-2-oxo-6,7-dihydrobenzo[a]quinolizine-3-carboxylic acid] yielded an IC50 of 75 nM. `CCC1Cc2cc(OCC(C)C)c(OC)cc2-c2cc(=O)c(C(=O)O)cn21` (single isomer, unassigned; (-)) [Example 35, (−)-6-ethyl-9-isobutoxy-10-methoxy-2-oxo-6,7-dihydrobenzo[a]quinolizine-3-carboxylic acid] had an IC50 of 1390 nM. `CCOc1cc2c(cc1OC)-c1cc(=O)c(C(=O)O)cn1C(CC)C2` (single isomer, unassigned; (-)) [Example 38, (−)-9-ethoxy-6-ethyl-10-methoxy-2-oxo-6,7-dihydrobenzo[a]quinolizine-3-carboxylic acid] had an IC50 of 1810 nM. For the compound `CCC1Cc2cc(OCCCOC)c(OC)cc2-c2cc(=O)c(C(=O)O)cn21` (single isomer, unassigned; (-)) [Example 41, (−)-6-ethyl-10-methoxy-9-(3-methoxypropoxy)-2-oxo-6,7-dihydrobenzo[a]quinolizine-3-carboxylic acid], the IC50 turned out to be 5770 nM. The same measure, in the same setting: under `CCOCCOc1cc2c(cc1OC)-c1cc(=O)c(C(=O)O)cn1C(CC)C2` (single isomer, unassigned; (-)) [Example 44, (−)-9-(2-ethoxyethoxy)-6-ethyl-10-methoxy-2-oxo-6,7-dihydrobenzo[a]quinolizine-3-carboxylic acid] stands 5460 nM. Take `CCC1Cc2cc(OCC(F)F)c(OC)cc2-c2cc(=O)c(C(=O)O)cn21` (single isomer, unassigned; (-)) [Example 47, (−)-9-(2,2-difluoroethoxy)-6-ethyl-10-methoxy-2-oxo-6,7-dihydrobenzo[a]quinolizine-3-carboxylic acid]: the midpoint of inhibition, the IC50, lay at 3400 nM.

Consider `CCC1Cc2cc(OCC3CCOCC3)c(OC)cc2-c2cc(=O)c(C(=O)O)cn21` (single isomer, unassigned; (-)) [Example 50, (−)-6-ethyl-10-methoxy-2-oxo-9-(tetrahydropyran-4-ylmethoxy)-6,7-dihydrobenzo[a]quinolizine-3-carboxylic acid], for which the midpoint of inhibition, the IC50, lay at 400 nM. Against the preceding compound, the IC50 is about 8.5-fold lower.
